Several values for one entry are separate records, joined by “and”; a condition that tells them apart may be missing. Equal values may be shown once. Numbers after ± are expanded uncertainties.
Columns and labels:
[1] = Crystal; DTA
[2] = Molar enthalpy of transition or fusion; details: Crystal; DSC

Molar enthalpy of transition or fusion [2]: 12.9 kcal/mol and 12.4 kcal/mol and 12.5 kcal/mol
Compound: OC[C@@H](O)[C@@H](O)[C@H](O)[C@H](O)CO [D-mannitol]
Normal melting temperature [1]: 165.73 ± 2 °C and 166.68 ± 2 °C and 165.74 ± 2 °C
